Laboratory results reported in ChEMBL document CHEMBL1909046, “DrugMatrix in vitro pharmacology data”.

What was measured:
[1] = target: Aldo-keto reductase family 1 member B1 (Rattus norvegicus, UniProt P07943); type: tissue-based, Lens of camera-type eye;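 also: inhibition of aldose reductase enzyme activity, measured with DL-glyceraldehyde as the substrate; in other assays of this panel Not Active means under 50% inhibition at 10 µM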
[2] = DRUGMATRIX: Sigma2 radioligand binding (ligand: [3H] Ifenprodil); type: cell membranes, Rattus norvegicus, Wistar, Brain, Membrane; details: Not Active = under 50% inhibition at 10 µM
Carbonic anhydrase 2 = Carbonic anhydrase 2 (Homo sapiens, UniProt P00918); test: DRUGMATRIX: Carbonic Anhydrase II enzyme inhibition (substrate: 4-Nitrophenyl acetate (4-NPA)); type: tissue-based; details: erythrocyte; Not Active = under 50% inhibition at 10 µM
[3] = target: C-C chemokine receptor type 2 (Homo sapiens, UniProt P41597); type: cell membranes, Membrane; details: cho-k1; also: in other assays of this panel Not Active means under 50% inhibition at 10 µM
Chain of C-C chemokine receptor type 2 (P41597 whole entry): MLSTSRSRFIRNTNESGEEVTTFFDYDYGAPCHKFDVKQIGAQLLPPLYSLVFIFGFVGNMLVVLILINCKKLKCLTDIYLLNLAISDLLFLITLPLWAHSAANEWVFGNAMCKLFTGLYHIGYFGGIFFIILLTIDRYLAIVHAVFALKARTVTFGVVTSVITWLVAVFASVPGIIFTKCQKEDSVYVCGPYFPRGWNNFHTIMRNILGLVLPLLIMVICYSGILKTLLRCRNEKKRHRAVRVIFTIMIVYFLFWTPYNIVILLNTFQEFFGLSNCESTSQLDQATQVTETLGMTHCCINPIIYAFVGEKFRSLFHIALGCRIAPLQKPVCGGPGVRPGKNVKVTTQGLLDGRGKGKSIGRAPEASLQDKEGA

[4] = target: T1, Muscarinic acetylcholine receptor M4 (Homo sapiens, UniProt P08173); type: cell membranes, CHO-K1, Membrane; details: cho-k1; also: in other assays of this panel Not Active means under 50% inhibition at 10 µM
T1 sequence (P08173 whole entry): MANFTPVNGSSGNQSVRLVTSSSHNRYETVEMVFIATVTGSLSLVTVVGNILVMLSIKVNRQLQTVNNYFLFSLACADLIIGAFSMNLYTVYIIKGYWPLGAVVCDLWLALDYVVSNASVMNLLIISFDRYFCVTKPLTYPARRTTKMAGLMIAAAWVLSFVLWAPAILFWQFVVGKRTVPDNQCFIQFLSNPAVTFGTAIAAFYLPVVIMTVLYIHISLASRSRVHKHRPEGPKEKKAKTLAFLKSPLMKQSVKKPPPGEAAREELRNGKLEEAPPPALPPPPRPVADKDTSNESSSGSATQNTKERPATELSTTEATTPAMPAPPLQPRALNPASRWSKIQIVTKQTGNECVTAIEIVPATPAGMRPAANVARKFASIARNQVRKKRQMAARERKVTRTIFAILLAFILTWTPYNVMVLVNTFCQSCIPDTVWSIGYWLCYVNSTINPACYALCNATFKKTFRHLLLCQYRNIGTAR

[5] = target: Platelet-activating factor receptor (Homo sapiens, UniProt P25105); type: tissue-based; also: in other assays of this panel Not Active means under 50% inhibition at 10 µM
Chain of Platelet-activating factor receptor (P25105 whole entry): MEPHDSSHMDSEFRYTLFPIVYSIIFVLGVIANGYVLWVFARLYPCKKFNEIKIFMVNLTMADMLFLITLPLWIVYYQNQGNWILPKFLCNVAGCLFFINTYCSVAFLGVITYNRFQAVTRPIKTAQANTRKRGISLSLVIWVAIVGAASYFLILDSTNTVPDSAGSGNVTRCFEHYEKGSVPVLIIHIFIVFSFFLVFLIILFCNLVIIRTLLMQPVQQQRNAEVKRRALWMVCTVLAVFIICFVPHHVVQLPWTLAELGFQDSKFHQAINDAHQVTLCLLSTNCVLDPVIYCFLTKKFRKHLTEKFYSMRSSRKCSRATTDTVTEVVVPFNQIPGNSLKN

Cytochrome P450 3A4 = Cytochrome P450 3A4 (Homo sapiens, UniProt P08684); details: bti-tn-5b1-4; also: in other assays of this panel Not Active means under 50% inhibition at 10 µM
Chain of Cytochrome P450 3A4 (P08684 whole entry): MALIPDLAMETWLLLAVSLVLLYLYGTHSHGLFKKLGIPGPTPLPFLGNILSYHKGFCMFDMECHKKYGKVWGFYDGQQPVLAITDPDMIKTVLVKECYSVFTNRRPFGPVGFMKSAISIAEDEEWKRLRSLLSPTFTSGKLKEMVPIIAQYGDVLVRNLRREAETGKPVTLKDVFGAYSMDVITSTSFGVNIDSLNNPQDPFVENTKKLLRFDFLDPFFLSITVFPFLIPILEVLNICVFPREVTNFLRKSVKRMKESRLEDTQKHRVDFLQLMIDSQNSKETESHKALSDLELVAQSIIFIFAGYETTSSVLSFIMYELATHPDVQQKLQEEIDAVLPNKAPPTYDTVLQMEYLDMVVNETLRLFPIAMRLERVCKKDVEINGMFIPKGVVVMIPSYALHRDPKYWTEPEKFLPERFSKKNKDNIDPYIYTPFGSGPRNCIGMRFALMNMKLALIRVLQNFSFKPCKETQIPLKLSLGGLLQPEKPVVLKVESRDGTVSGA

O=c1cc(N2CCOCC2)oc2c(-c3ccccc3)cccc12 [LY-294002]
Not Active: IC50 [1] | IC50 [2] | Ki [2] | IC50 (Carbonic anhydrase 2) | IC50 [3] | IC50 [4] | IC50 [5] | IC50 (Cytochrome P450 3A4) | Ki (Cytochrome P450 3A4)

COc1ccc2[nH]cc(CCNC(C)=O)c2c1 [MELATONIN]
Not Active: IC50 [1] | IC50 [2] | Ki [2] | IC50 (Carbonic anhydrase 2) | IC50 [3] | IC50 [4] | IC50 [5] | IC50 (Cytochrome P450 3A4) | Ki (Cytochrome P450 3A4)

NC(=O)C[S+]([O-])C(c1ccccc1)c1ccccc1 (stereo not given) [MODAFINIL]
Not Active: IC50 [1] | IC50 [2] | Ki [2] | IC50 (Carbonic anhydrase 2) | IC50 [3] | IC50 [4] | IC50 [5] | IC50 (Cytochrome P450 3A4) | Ki (Cytochrome P450 3A4)

CCN(CC)CCOCCC1=CCC2CC1C2(C)C (stereo not given) [MYRTECAINE]
Not Active: IC50 [1] | IC50 [2] | Ki [2] | IC50 (Carbonic anhydrase 2) | IC50 [3] | IC50 [4] | IC50 [5] | IC50 (Cytochrome P450 3A4) | Ki (Cytochrome P450 3A4)

O=C(O)c1cccnc1Nc1cccc(C(F)(F)F)c1 [NIFLUMIC ACID]
Not Active: IC50 [1] | IC50 [2] | Ki [2] | IC50 (Carbonic anhydrase 2) | IC50 [3] | IC50 [4] | IC50 [5] | IC50 (Cytochrome P450 3A4) | Ki (Cytochrome P450 3A4)

O=C(N/N=C/c1ccc([N+](=O)[O-])o1)c1cc([N+](=O)[O-])cc([N+](=O)[O-])c1O [NIFURSOL]
Not Active: IC50 [1] | IC50 [2] | Ki [2] | IC50 (Carbonic anhydrase 2) | IC50 [3] | IC50 [4] | IC50 [5] | IC50 (Cytochrome P450 3A4) | Ki (Cytochrome P450 3A4)

COC(=O)Nc1nc2ccc(C(=O)c3cccs3)cc2[nH]1 [NOCODAZOLE]
Not Active: IC50 [1] | IC50 [2] | Ki [2] | IC50 (Carbonic anhydrase 2) | IC50 [3] | IC50 [4] | IC50 [5] | IC50 (Cytochrome P450 3A4) | Ki (Cytochrome P450 3A4)

C#CC1(O)CC[C@H]2[C@@H]3CCC4=CC(=O)CC[C@@H]4[C@H]3CC[C@@]21CC (stereo not given in full) [NORGESTREL]
Not Active: IC50 [1] | IC50 [2] | Ki [2] | IC50 (Carbonic anhydrase 2) | IC50 [3] | IC50 [4] | IC50 [5] | IC50 (Cytochrome P450 3A4) | Ki (Cytochrome P450 3A4)

COC(=O)Nc1nc2ccc([S+]([O-])c3ccccc3)cc2[nH]1 (stereo not given) [OXFENDAZOLE]
Not Active: IC50 [1] | IC50 [2] | Ki [2] | IC50 (Carbonic anhydrase 2) | IC50 [3] | IC50 [4] | IC50 [5] | IC50 (Cytochrome P450 3A4) | Ki (Cytochrome P450 3A4)

CC(=O)O[C@H]1C(=O)[C@@]2(C)[C@H]([C@H](OC(=O)c3ccccc3)[C@]3(O)C[C@H](OC(=O)[C@H](O)[C@@H](NC(=O)c4ccccc4)c4ccccc4)C(C)=C1C3(C)C)[C@]1(OC(C)=O)CO[C@@H]1C[C@@H]2O [PACLITAXEL]
Not Active: IC50 [1] | IC50 [2] | Ki [2] | IC50 (Carbonic anhydrase 2) | IC50 [3] | IC50 [4] | IC50 [5] | IC50 (Cytochrome P450 3A4) | Ki (Cytochrome P450 3A4)

C[n+]1ccc(-c2cc[n+](C)cc2)cc1.[Cl-].[Cl-] [PARAQUAT DICHLORIDE]
Not Active: IC50 [1] | IC50 [2] | Ki [2] | IC50 (Carbonic anhydrase 2) | IC50 [3] | IC50 [4] | IC50 [5] | IC50 (Cytochrome P450 3A4) | Ki (Cytochrome P450 3A4)

CCn1cc(C(=O)O)c(=O)c2cnc(N3CCCC3)nc21 [PIROMIDIC ACID]
Not Active: IC50 [1] | IC50 [2] | Ki [2] | IC50 (Carbonic anhydrase 2) | IC50 [3] | IC50 [4] | IC50 [5] | IC50 (Cytochrome P450 3A4) | Ki (Cytochrome P450 3A4)

C[n+]1ccccc1/C=N/O.[Cl-] [PRALIDOXIME CHLORIDE]
Not Active: IC50 [1] | IC50 [2] | Ki [2] | IC50 (Carbonic anhydrase 2) | IC50 [3] | IC50 [4] | IC50 [5] | IC50 (Cytochrome P450 3A4) | Ki (Cytochrome P450 3A4)

COc1cc2nc(N3CCN(C(=O)c4ccco4)CC3)nc(N)c2cc1OC [PRAZOSIN]
Not Active: IC50 [1] | IC50 [2] | Ki [2] | IC50 (Carbonic anhydrase 2) | IC50 [3] | IC50 [4] | IC50 [5] | IC50 (Cytochrome P450 3A4) | Ki (Cytochrome P450 3A4)

C[C@]12C=CC(=O)C=C1CC[C@@H]1[C@@H]2[C@@H](O)C[C@@]2(C)[C@H]1CC[C@]2(O)C(=O)CO [PREDNISOLONE]
Not Active: IC50 [1] | IC50 [2] | Ki [2] | IC50 (Carbonic anhydrase 2) | IC50 [3] | IC50 [4] | IC50 [5] | IC50 (Cytochrome P450 3A4) | Ki (Cytochrome P450 3A4)

CC(=O)[C@H]1[C@H](C#N)C[C@H]2[C@@H]3CC=C4C[C@@H](O)CC[C@]4(C)[C@H]3CC[C@@]21C [PREGNENOLONE CARBONITRILE]
Not Active: IC50 [1] | IC50 [2] | Ki [2] | IC50 (Carbonic anhydrase 2) | IC50 [3] | IC50 [4] | IC50 [5] | IC50 (Cytochrome P450 3A4) | Ki (Cytochrome P450 3A4)

CCCN(CCC)S(=O)(=O)c1ccc(C(=O)O)cc1 [PROBENECID]
Not Active: IC50 [1] | IC50 [2] | Ki [2] | IC50 (Carbonic anhydrase 2) | IC50 [3] | IC50 [4] | IC50 [5] | IC50 (Cytochrome P450 3A4) | Ki (Cytochrome P450 3A4)

CCCOc1ccc(C(=O)OCCN(CC)CC)cc1N [PROPARACAINE]
Not Active: IC50 [1] | IC50 [2] | Ki [2] | IC50 (Carbonic anhydrase 2) | IC50 [3] | IC50 [4] | IC50 [5] | IC50 (Cytochrome P450 3A4) | Ki (Cytochrome P450 3A4)

C[C@@H]1O[C@@H](O[C@@H]2C=C3CC[C@@H]4[C@H](CC[C@]5(C)[C@@H](c6ccc(=O)oc6)CC[C@]45O)[C@@]3(C)CC2)[C@H](O)[C@H](O)[C@H]1O [PROSCILLARIDIN]
Not Active: IC50 [1] | IC50 [2] | Ki [2] | IC50 (Carbonic anhydrase 2) | IC50 [3] | IC50 [4] | IC50 [5] | IC50 (Cytochrome P450 3A4) | Ki (Cytochrome P450 3A4)

Oc1cccc(O)c1O [PYROGALLOL]
Not Active: IC50 [1] | IC50 [2] | Ki [2] | IC50 (Carbonic anhydrase 2) | IC50 [3] | IC50 [4] | IC50 [5] | IC50 (Cytochrome P450 3A4) | Ki (Cytochrome P450 3A4)

AURANOFIN
Not Active: IC50 [1] | Ki [1] | IC50 [2] | Ki [2] | IC50 (Carbonic anhydrase 2) | Ki (Carbonic anhydrase 2) | IC50 [3] | Ki [3] | IC50 [4] | Ki [4] | IC50 [5] | Ki [5] | IC50 (Cytochrome P450 3A4) | Ki (Cytochrome P450 3A4)

GADOPENTETATE DIMEGLUMINE
Not Active: IC50 [1] | Ki [1] | IC50 [2] | Ki [2] | IC50 (Carbonic anhydrase 2) | Ki (Carbonic anhydrase 2) | IC50 [3] | Ki [3] | IC50 [4] | Ki [4] | IC50 [5] | Ki [5] | IC50 (Cytochrome P450 3A4) | Ki (Cytochrome P450 3A4)

GENTAMICIN
Not Active: IC50 [1] | Ki [1] | IC50 [2] | Ki [2] | IC50 (Carbonic anhydrase 2) | Ki (Carbonic anhydrase 2) | IC50 [3] | Ki [3] | IC50 [4] | Ki [4] | IC50 [5] | Ki [5] | IC50 (Cytochrome P450 3A4) | Ki (Cytochrome P450 3A4)

GRAMICIDIN
Not Active: IC50 [1] | Ki [1] | IC50 [2] | Ki [2] | IC50 (Carbonic anhydrase 2) | Ki (Carbonic anhydrase 2) | IC50 [3] | Ki [3] | IC50 [4] | Ki [4] | IC50 [5] | Ki [5] | IC50 (Cytochrome P450 3A4) | Ki (Cytochrome P450 3A4)

NYSTATIN
Not Active: IC50 [1] | Ki [1] | IC50 [2] | Ki [2] | IC50 (Carbonic anhydrase 2) | Ki (Carbonic anhydrase 2) | IC50 [3] | Ki [3] | IC50 [4] | Ki [4] | IC50 [5] | Ki [5] | IC50 (Cytochrome P450 3A4) | Ki (Cytochrome P450 3A4)
